Experimental findings from patent publication US10414734B2, “5-hydroxyalkylbenzimidazoles as mIDH1 inhibitors” (BAYER PHARMA AKTIENGESELLSCHAFT, priority 2015, dated 2019) are described below.

The subject of assay [1] is LN229 R132H cells overexpressing mutated isocitrate dehydrogenase (mIDH). Kind of assay: Mutant IDH1 cellular assay (2-HG in medium). The assay is classed as cell-based. The settings on record: 2-HG in medium after 24 hours, fluorescence readout. How it is done: Mutant IDH1 Cellular Assay
Levels of (2R)-2-hydroxyglutarate (2HG) were measured in medium of a cell line with overexpression of mutated isocitrate dehydrogenase (mIDH) protein. mIDH catalyzes the NADPH-dependent reduction of alpha-ketoglutarate to 2-HG. Cells (LN229 R132H, Mohrenz et al., Apoptosis (2013) 18:1416-1425) were grown in DMEM containing 10% FCS. They were harvested by trypsin and seeded into 96-well plates. Cells were incubated overnight at 37° C. in 5% CO2. The next day test compounds were added to each cell well. The final concentration of DMSO was 0.1% and DMSO controls were included. The plates were then placed in an incubator for 24 hours.
2-HG was measured according to Balss et al. (Acta Neuropathol (2012) 124: 883-891). Briefly, perchloric acid was added to each well and the plates were centrifuged. Aliquots are removed and incubated with hydroxyglutarate dehydrogenase (HGDH), diaphorase, NAD+, and resazurin. The conversion of resazurin to resorufin was detected by fluorescence spectroscopy at Ex 540 nm Em 600 nm. The increase in fluorescence is proportional to 2-HG production. IC50 values are determined by interpolation from plots of relative fluorescence vs inhibitor concentration.

The target in the next assay is IDH1 R132H enzyme (Homo sapiens (Human), UniProt O75874, R132H). Put plainly: Mutant IDH1 R132H biochemical assay. The settings on record: luminescent NADPH consumption readout; 1.5 nM enzyme, 1 μM NADPH, 250 μM α-KG, 30 min, 32° C. As to the method:
Mutant IDH1 R132H Biochemical Assay
mIDH1 catalyzes the NADPH-dependent reduction of alpha-ketoglutarate (α-KG) to (2R)-2-hydroxyglutarate (2-HG). NADPH consumption was measured by luminescent readout.
The biochemical reactions were performed at 32° C. in 384-well plates using a reaction volume of 41 μL and the following assay buffer conditions: 50 mM Tris pH 7.5, 100 mM NaCl, 20 mM MgCl2, 0.05% BSA, 0.01% Brij, 1 μM NADPH, and 250 μM α-KG. The IDH1 R132H enzyme was used in a final concentration of 1.5 nM. Test compounds were used in a concentration range between 0.002 and 10 μM. The final DMSO concentration was 2.4%.
The reaction was incubated for 30 minutes, then 40 μL of detection mix (0.75 μg/ml Luciferase, 0.02 U/ml Oxidoreductase, 4 μg/mL FMN, 2 μL/ml decanal/ethanol, 50 mM Tris pH 7.5, 0.5% Glycerin, 0.01% Tween-20, 0.05% BSA) was added. Luminescence was measured on a luminescent reader (10 seconds measuring time, 1 second integration period, 30% sensitivity). The decrease in luminescence is proportional to mIDH1 activity. IC50 values are determined by interpolation from plots of relative luminescence versus inhibitor concentration.

By IC50 is commonly meant the concentration that gives 50% inhibition. Lower therefore signals greater potency in that assay.

Chain of IDH1 R132H enzyme (O75874 whole entry R132H): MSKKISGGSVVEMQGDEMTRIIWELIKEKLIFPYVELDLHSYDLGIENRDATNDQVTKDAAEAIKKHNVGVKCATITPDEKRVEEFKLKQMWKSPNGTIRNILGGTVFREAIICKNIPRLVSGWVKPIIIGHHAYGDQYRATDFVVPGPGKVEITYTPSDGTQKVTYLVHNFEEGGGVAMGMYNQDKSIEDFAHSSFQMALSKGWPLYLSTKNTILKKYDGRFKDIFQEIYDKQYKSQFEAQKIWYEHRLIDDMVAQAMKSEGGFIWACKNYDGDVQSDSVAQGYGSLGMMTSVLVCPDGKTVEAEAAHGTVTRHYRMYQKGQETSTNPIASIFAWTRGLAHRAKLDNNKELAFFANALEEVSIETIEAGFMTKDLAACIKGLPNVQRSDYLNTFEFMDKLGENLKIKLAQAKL

Consider `COc1cc2c(cc1CO)nc(Nc1ccc(OC(F)(F)F)cc1)n2[C@H]1C[C@@H](C)CC(C)(C)C1` (single isomer, unassigned; enantiomer b) [Example 2-6-2, (6-methoxy-2-{[4-(trifluoromethoxy)phenyl]amino}-1-[(cis)-3,3,5-trimethylcyclohexyl]-1H-benzimidazol-5-yl)methanol, enantiomer B], for which the 50% inhibitory concentration (IC50) is 630 nM in assay [1] and 110 nM against IDH1 R132H enzyme. Taken in the same sequence, the figures for `COc1cc2c(cc1CO)nc(Nc1ccc(OC(F)(F)F)cc1)n2[C@H]1C[C@@H](C)CC(C)(C)C1` (single isomer, unassigned; enantiomer a) [Example 2-6-1, (6-methoxy-2-{[4-(trifluoromethoxy)phenyl]amino}-1-[(cis)-3,3,5-trimethylcyclohexyl]-1H-benzimidazol-5-yl)methanol, enantiomer A] were 140 nM and 20 nM. As for `C[C@@H]1C[C@H](n2c(Nc3ccc(OC(F)(F)F)cc3)nc3cc(CO)ccc32)CC(C)(C)C1` (single isomer, unassigned; enantiomer a) [Example 2-1-1, (2-{[4-(trifluoromethoxy)phenyl]amino}-1-[(cis)-3,3,5-trimethylcyclohexyl]-1H-benzimidazol-5-yl)methanol, enantiomer A], the half-maximal inhibitory concentration (IC50) is 1300 nM in assay [1] (Homo sapiens, LN-229, 24 h) and 50 nM on IDH1 R132H enzyme. In the case of `COc1cc2c(cc1C(C)(C)O)nc(Nc1ccc(OC(F)(F)F)cc1)n2[C@H]1C[C@@H](C)CC(C)(C)C1` (single isomer, unassigned; enantiomer b) [Example 2-7-2, 2-(6-methoxy-2-{[4-(trifluoromethoxy)phenyl]amino}-1-[(cis)-3,3,5-trimethylcyclohexyl]-1H-benzimidazol-5-yl)propan-2-ol, enantiomer B], the figures for the concentration for half-maximal inhibition (IC50) (in assay [1]; on IDH1 R132H enzyme) were 90 nM and 20 nM, respectively. Regarding `C[C@@H]1C[C@H](n2c(Nc3ccc(OC(F)(F)F)cc3)nc3cc(C(C)(C)O)ccc32)CC(C)(C)C1` (single isomer, unassigned; enantiomer b) [Example 2-2-2, 2-(2-{[4-(trifluoromethoxy)phenyl]amino}-1-[(cis)-3,3,5-trimethylcyclohexyl]-1H-benzimidazol-5-yl)propan-2-ol, enantiomer B], the half-inhibitory concentration (IC50) in assay [1] (Homo sapiens, LN-229, 24 h) turned out to be 500 nM; against IDH1 R132H enzyme, 40 nM. Take `COc1cc2c(cc1C(C)(C)O)nc(Nc1ccc(OC(F)(F)F)cc1)n2[C@H]1C[C@@H](C)CC(C)(C)C1` (single isomer, unassigned; enantiomer a) [Example 2-7-1, 2-(6-methoxy-2-{[4-(trifluoromethoxy)phenyl]amino}-1-[(cis)-3,3,5-trimethylcyclohexyl]-1H-benzimidazol-5-yl)propan-2-ol, enantiomer A]: the figures for the half-maximal inhibitory concentration (IC50) (in assay [1]; against IDH1 R132H enzyme) were 480 nM and 50 nM, respectively. With `Cc1cc2c(cc1[C@@H](O)C(F)(F)F)nc(Nc1ccc(OC(F)(F)F)cc1)n2C1CC(C)(C)CC(C)(C)C1` (racemic) [Example 2-5, (±) 2,2,2-trifluoro-1-[6-methyl-1-(3,3,5,5-tetramethylcyclohexyl)-2-{[4-(trifluoromethoxy)phenyl]amino}-1H-benzimidazol-5-yl]ethanol], the half-maximal inhibitory concentration (IC50) in assay [1] (Homo sapiens, LN-229, 24 h) was 800 nM; against IDH1 R132H enzyme it was 30 nM. In the case of `Cc1cc2c(cc1C(C)(C)O)nc(Nc1ccc(OC(F)(F)F)cc1)n2C1CC(C)(C)CC(C)(C)C1` [Example 2-4, 2-[6-methyl-1-(3,3,5,5-tetramethylcyclohexyl)-2-{[4-(trifluoromethoxy)phenyl]amino}-1H-benzimidazol-5-yl]propan-2-ol], the half-maximal inhibitory concentration (IC50) in assay [1] (Homo sapiens, LN-229, 24 h) came to 550 nM; at IDH1 R132H enzyme, 30 nM. Turning to `COc1cc2c(cc1CC(C)(C)O)nc(Nc1ccc(OC(F)(F)F)cc1)n2[C@H]1C[C@@H](C)CC(C)(C)C1` (single isomer, unassigned; enantiomer b) [Example 2-9-2, 1-(6-methoxy-2-{[4-(trifluoromethoxy)phenyl]amino}-1-[(cis)-3,3,5-trimethylcyclohexyl]-1H-benzimidazol-5-yl)-2-methylpropan-2-ol, enantiomer B], the IC50 on IDH1 R132H enzyme came out at 10 nM.
